Laboratory results taken from article PMC3784064, “A phase I/II study of carfilzomib 2–10-min infusion in patients with advanced solid tumors” (Cancer Chemotherapy and Pharmacology, 2013).
Like-named read-outs stand apart in the source and are kept apart here.

Columns and labels:
[1] = test system: patients with advanced solid tumors; assay: Safety: adverse events graded by NCI CTCAE v3.0; format: in vivo
Source text: (§1) The phase I dose-escalation portion of the study followed the standard 3 + 3 design. Patients were enrolled at two sites in sequential cohorts of 3–6 patients each to establish the MTD. The MTD was defined as the highest dose up to the MPD at which […] of six patients experienced treatment-related dose-limiting toxicities (DLT) during the first cycle. DLTs were defined as treatment-related ≥grade 2 neuropathy with pain, ≥grade 3 non-hematologic toxicity, grade 4 neutropenia or thrombocytopenia lasting 7 or more days, or thrombocytopenia with bleeding. Toxicity was graded according to NCI CTCAE v3.0 [19].
(§2) All patients who received at least one dose of study treatment were evaluable for the safety analysis. After the initiation of carfilzomib, adverse events (AEs) were evaluated at each visit. Patients completed a comprehensive neurologic evaluation and radiographic assessment of tumor burden using computerized tomography (CT) at baseline and every 8 weeks for the first 24 weeks, then every 12 weeks thereafter or at treatment discontinuation. Patients who received at least one cycle of treatment and had both baseline and post-baseline disease assessments were evaluable for efficacy. Treatment response was assessed according to RECIST 1.0 [18]. Patients with stable disease (SD) or an objective response (CR or PR) after two cycles continued treatment until disease progression or unacceptable toxicity.

solid tumor cell lines = test system: solid tumor cell lines; set-up: method as in PMID 17616698; settings: 1-h pulse, replicating clinical pharmacokinetics; cited from earlier work
[2] = human, in vivo, 20 mg/m2
Procedure: (§3) Serial blood samples were collected on days 1 and 16 of cycle 1 and day 16 of cycle 2 as follows: predose, immediately post-dose, and then at 5, 15, and 30 min, and 1, 2, and 4 h post-dose. Plasma samples for PK studies were assayed using validated liquid chromatography/mass spectrometry with a lower limit of detection of 0.10 ng/ml [17].
(§4) Pharmacokinetic parameters were estimated by non-compartmental analysis using WinNonlin Enterprise Version 5.2 (Pharsight Inc., Mountain View, CA).

clinical = settings: human, in vivo
Procedure: as §3, §4

[3] = test system: human solid tumor xenograft model; set-up: method as in PMID 17616698; settings: consecutive-day dosing; cited from earlier work
advanced solid tumors = assay: Antitumor activity, treatment response by RECIST 1.0; format: in vivo, human
Procedure: The primary objective of the phase I dose-escalation portion of the study was to determine the maximum tolerated dose (MTD) of carfilzomib up to a maximum planned dose (MPD) of 20/36 mg/m^2. The primary objective of the expansion (various tumor types) and phase II tumor-specific portions was to determine the disease control rate [DCR = complete response (CR) + partial response (PR) + stable disease (SD)] as defined by RECIST 1.0 [18] after four cycles of treatment at the MTD or MPD. Secondary objectives included pharmacokinetics (PK) and pharmacodynamics (PDn) of carfilzomib.
Once dose escalation was completed, an additional 11 evaluable patients with assorted tumor types could enroll in the expansion cohort to receive carfilzomib at the MTD/MPD. In the phase II tumor-specific portion of the study, cohorts of patients with NSCLC, SCLC, ovarian cancer, and renal cancer were to be treated at the MTD/MPD utilizing a Simon two-stage design. Tumor types included in the phase II tumor-specific cohorts were selected based on efficacy results from the phase I dose-escalation portion and preclinical data.
as §2
Continuous and categorical data were summarized with descriptive statistics or frequencies and percentages, respectively. For the phase II tumor-specific portion, the Simon two-stage sample size calculation applied a null hypothesis objective response rate (ORR = CR + PR) of 2 % and an alternative hypothesis ORR of 15 %, with the type I error at 5 % and a power of 0.8. For stage 1, 11 evaluable patients were to be enrolled in each of the four solid tumor cohorts. […] Because there were multiple study sites, over enrollment was permitted.

[4] = test system: patients with advanced solid tumors; assay: Phase I dose escalation (3 + 3): DLT and MTD determination; format: in vivo
Procedure: Carfilzomib (Onyx Pharmaceuticals, Inc, South San Francisco, CA) was administered by intravenous infusion over 2–10 min on days 1, 2, 8, 9, 15, and 16 of a 28-day cycle. For the phase I dose-escalation portion, the starting dose in all cohorts for days 1 and 2 of cycle 1 was 20 mg/m^2, based on the tolerated dose identified in hematologic malignancies. On all remaining cycle 1 dosing days (days 8, 9, 15, and 16) and in all subsequent cycles, carfilzomib was administered at a dose of 20 mg/m^2 in cohort 1 (20/20 mg/m^2), 27 mg/m^2 in cohort 2 (20/27 mg/m^2), and 36 mg/m^2 in cohort 3 (20/36 mg/m^2). Stepped-up dosing in cycle 1 and dexamethasone premedication were adopted to abrogate fever, chills and/or rigors, and dyspnea, all of which were […] observed during initial therapy in MM trials. Dexamethasone 4 mg (intravenous or oral) was administered prior to each carfilzomib dose for the first cycle and during subsequent cycles when indicated. Upon completion of 12 treatment cycles, patients had the option of enrolling in an open-label extension study, PX-171-010 (NCT00884312).
as §1

patients with MM = settings: human, in vivo, iv; cited from earlier work
proteasome in PBMCs = test system: proteasome in PBMCs; set-up: method as in PMID 22761464; settings: 20/27 mg/m^2, patients with hematologic malignancies; cited from earlier work
[5] = test system: proteasome chymotrypsin-like (CT-L) activity in whole blood and PBMCs; assay: Pharmacodynamics: proteasome CT-L activity, fluorogenic LLVY-AMC substrate assay; format: in vivo, human; settings: for Median proteasome inhibition / proteasome inhibition, range: day 1 of cycle 2
Procedure: Whole blood was collected on day 1 of the first two cycles prior to and 1 h after infusion for measurement of proteasome activity in whole blood and peripheral blood mononuclear cells (PBMCs). CT-L activity was assessed using a fluorogenic substrate assay with succinyl–Leu–Leu–Val–Tyr–AMC (LLVY) as previously described.

[6] = 20 mg/m^2, one hour after administration
[7] = 27 mg/m^2, one hour after administration
[8] = 36 mg/m^2, one hour after administration

## CC(C)C[C@H](NC(=O)[C@H](CCc1ccccc1)NC(=O)CN1CCOCC1)C(=O)N[C@@H](Cc1ccccc1)C(=O)N[C@@H](CC(C)C)C(=O)[C@@]1(C)CO1 [carfilzomib]
[1]; human, in vivo
  AE: fatigue: 35.7%
  AE: headache: 42.9%
  AE: hypokalemia: 35.7%
  patients who discontinued due to AEs: 14.3%
  patients who discontinued due to an AE: 10.8%
  patients who missed at least one carfilzomib dose due to AEs: 29.2%
  patients with carfilzomib dose reduced due to AEs of elevated blood creatinine/decreased CrCl: 12.3%
[1]; in vivo
  carfilzomib dose reduced due to AEs: No patients
[1]; on study or within 30 days of ending treatment
  deaths considered related to carfilzomib: No deaths
Solid tumor cell lines
  potency at killing solid tumor cell lines compared with bortezomib: more potent than bortezomib
[2]
  AUClast: 269 ± 61.7 ng·h/mL
  CL: 136 ± 52.8 L/h
  Cmax: 3410 ± 51.5 ng/mL
clinical; 20 mg/m2, AUClast
  AUC(0-t): 251 ± 92 ng·h/mL
clinical; 20 mg/m2, CL
  clearance: 4380 mL/min
clinical; 20 mg/m2, Cmax
  Cmax: 2390 ± 104 ng/mL
clinical; 27 mg/m2, AUClast
  AUC(0-t): 379 ± 24.8 ng·h/mL
clinical; 27 mg/m2, CL
  clearance: 2500 mL/min
clinical; 27 mg/m2, Cmax
  Cmax: 4230 ± 48.8 ng/mL
clinical; 27 mg/m2, V ss
  Vd: 11.1 ± 4.45 L
clinical; 27 mg/m2, t 1/2
  half-life: 21 min
clinical; 36 mg/m2, AUClast
  AUC(0-t): 594 ± 52.5 ng·h/mL
clinical; 36 mg/m2, CL
  clearance: 1930 mL/min
clinical; 36 mg/m2, Cmax
  Cmax: 5718 ± 46.5 ng/mL
clinical; 36 mg/m2, V ss
  Vd: 9.33 ± 4.8 L
clinical; 36 mg/m2, t 1/2
  half-life: 52.2 min
clinical; iv, half-life
  half-life: < 60 min
[3]
  antitumor activity compared with bortezomib or carfilzomib dosed on days 1 and 4: more effective antitumor activity
Advanced solid tumors; expansion and phase II patients, 29/51, 20/36 mg/m^2
  PD as best response: 56.9%
Advanced solid tumors; expansion and phase II tumor-specific cohorts, 20/36 mg/m^2
  patients with SD for 6 months or longer: four
Advanced solid tumors; expansion and phase II tumor-specific cohorts, 22 of 51 evaluable patients, 20/36 mg/m^2
  patients with SD after two cycles: 43.1%
Advanced solid tumors; expansion and phase II tumor-specific cohorts, 51 evaluable patients, 20/36 mg/m^2, after four cycles or over the study period
  PR or better: No patients
Advanced solid tumors; one patient with renal cancer, 20/36 mg/m^2, after five cycles
  reduction in tumor burden: > 80%
Advanced solid tumors; phase I dose-escalation portion, 12 evaluable patients
  progressive disease (PD): eight
Advanced solid tumors; phase I dose-escalation portion, 20/36 mg/m^2, 12 evaluable patients
  confirmed partial response (PR): two
[4]; human, in vivo, iv, 28 days
  MPD recommended for the expansion and phase II tumor-specific portions: 20/36
[4]; in vivo
  dose-limiting toxicities (DLT): no DLTs
[4]; phase I dose-escalation portion, up to the MPD of 20/36 mg/m^2
  maximum tolerated dose (MTD): No MTD was identified
Patients with MM
  tolerable dose: 20/27
Proteasome in PBMCs
  proteasome inhibition: > 90%
[5]; [6]
  Median proteasome inhibition: 83.4%
  proteasome inhibition, range: 82.9–85.5%
[5]; [7]
  Median proteasome inhibition: 91.6%
  proteasome inhibition, range: 79.0–93.2%
[5]; [8]
  Median proteasome inhibition: 88.6%
  proteasome inhibition, range: 54.7–99.4%
[5]; PBMCs
  recovery of proteasome activity by the start of the second cycle: there was recovery
[5]; whole blood
  recovery of constitutive proteasome activity between cycles: Minimal recovery
[5]; whole blood and PBMCs, one hour after administration on day 1 of cycle 2, all doses
  inhibition of proteasome CT-L activity: at least 80%
